Test results as given in ChEMBL document CHEMBL4184281, “Pharmacology and in vivo efficacy of pyridine-pyrimidine amides that inhibit microtubule polymerization” (Bioorg Med Chem Lett, 2018).
Activity calls are given as the source filed them. The rule behind the calls is not given here.

Legend:
[1] = Toxicity in mouse; format: organism-based; details: in vivo
SNU-16 = experiment: Antitumor activity against human SNU16 cells xenografted in nude BALB/c mouse assessed as tumor growth inhibition relative to control; format: functional
[2] = Tmax in CD-1 mouse administered as single po dose by mass spectrometry; format: ADME, organism-based; details: in vivo
[3] = Stability in human plasma assessed as parent compound remaining after 75 mins relative to initial time; format: ADME, cell-free; details: read-out: Stability
[4] = Stability in human plasma assessed as parent compound remaining after 2 hrs relative to initial time; format: ADME, cell-free; details: read-out: Stability
[5] = Stability in human plasma assessed as parent compound remaining after 4 hrs relative to initial time; format: ADME, cell-free; details: read-out: Stability
[6] = Efflux ratio of apparent intrinsic permeability in human Caco2 cells after 120 mins by mass spectrometry; format: ADME, cell-based; details: Caco-2
in vitro [7] = details: human, Caco-2
Description: Apparent intrinsic permeability in human Caco2 cells from apical to basolateral side after 120 mins by mass spectrometry

in vitro [8] = details: human, Caco-2; remark: listed apart in the source
Description: Apparent intrinsic permeability in human Caco2 cells from basolateral to apical side after 120 mins by mass spectrometry

[9] = Toxicity in mouse administered as single po dose; format: organism-based; details: in vivo
A2780 = experiment: Antitumor activity against human A2780 cells xenografted in nude BALB/c mouse assessed as tumor growth inhibition at 20 mg/kg, po qd measured up to 12 days post dose; format: functional, organism-based
Mus musculus = experiment: Toxicity in nude BALB/c mouse xenografted with human A2780 cells assessed as change in body weight at 20 mg/kg, po qd measured up to 12 days post dose; format: organism-based; details: in vivo, 288 h
[10] = Tmax in rat administered as single po dose by mass spectrometry; format: ADME, organism-based; details: in vivo
[11] = Unbound fraction in plasma (unknown origin); format: ADME, cell-free
[12] = Protein binding in plasma (unknown origin); format: ADME, cell-free; details: read-out: PPB (converted)
[13] = Drug recovery in plasma (unknown origin); format: ADME, cell-free
[14] = Stability in human plasma assessed as parent compound remaining after 8 hrs relative to initial time; format: ADME, cell-free; details: read-out: Stability
[15] = Stability in human plasma assessed as parent compound remaining after 24 hrs relative to initial time; format: ADME, cell-free; details: read-out: Stability
[16] = Half life in mouse liver microsomes; format: ADME, microsome
[17] = Half life in rat liver microsomes; format: ADME, microsome
[18] = Half life in dog liver microsomes; format: ADME, Canis lupus familiaris, microsome
[19] = Half life in human liver microsomes; format: ADME, microsome
Cytochrome P450 1A2 = biological target: T1, Cytochrome P450 1A2 (Homo sapiens, UniProt P05177); experiment: Inhibition of CYP1A2 (unknown origin); format: ADME
T1 sequence (P05177 whole entry): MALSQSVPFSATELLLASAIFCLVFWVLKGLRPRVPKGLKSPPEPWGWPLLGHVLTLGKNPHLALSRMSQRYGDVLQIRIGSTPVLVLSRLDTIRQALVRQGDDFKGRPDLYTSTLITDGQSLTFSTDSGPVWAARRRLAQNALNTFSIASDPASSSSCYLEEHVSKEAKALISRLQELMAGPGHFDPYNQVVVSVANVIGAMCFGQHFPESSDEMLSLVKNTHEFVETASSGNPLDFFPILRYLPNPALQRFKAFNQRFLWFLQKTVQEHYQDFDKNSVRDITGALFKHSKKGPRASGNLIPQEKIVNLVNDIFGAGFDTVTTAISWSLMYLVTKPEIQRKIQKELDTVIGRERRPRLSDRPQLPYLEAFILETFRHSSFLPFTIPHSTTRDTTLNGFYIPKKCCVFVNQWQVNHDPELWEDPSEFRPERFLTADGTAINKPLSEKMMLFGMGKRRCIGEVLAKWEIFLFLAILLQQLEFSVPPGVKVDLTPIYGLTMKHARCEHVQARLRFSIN

Cytochrome P450 2C9 = Cytochrome P450 2C9 (Homo sapiens, UniProt P11712); experiment: Inhibition of CYP2C9 (unknown origin); format: ADME
Chain of Cytochrome P450 2C9 (P11712 whole entry): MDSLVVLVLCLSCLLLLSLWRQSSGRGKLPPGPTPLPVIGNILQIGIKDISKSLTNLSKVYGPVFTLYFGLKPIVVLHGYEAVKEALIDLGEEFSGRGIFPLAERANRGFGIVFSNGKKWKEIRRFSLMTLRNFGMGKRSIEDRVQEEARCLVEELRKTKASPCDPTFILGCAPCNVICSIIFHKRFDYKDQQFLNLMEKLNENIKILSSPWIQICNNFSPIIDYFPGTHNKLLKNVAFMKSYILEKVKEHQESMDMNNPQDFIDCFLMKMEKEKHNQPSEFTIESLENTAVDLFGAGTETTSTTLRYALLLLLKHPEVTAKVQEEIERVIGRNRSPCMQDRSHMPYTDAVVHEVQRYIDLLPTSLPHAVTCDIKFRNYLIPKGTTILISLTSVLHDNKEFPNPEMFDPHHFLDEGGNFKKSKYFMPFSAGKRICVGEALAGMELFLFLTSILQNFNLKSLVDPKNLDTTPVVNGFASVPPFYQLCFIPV

Cytochrome P450 2C19 = Cytochrome P450 2C19 (Homo sapiens, UniProt P33261); experiment: Inhibition of CYP2C19 (unknown origin); format: ADME
Chain of Cytochrome P450 2C19 (P33261 whole entry): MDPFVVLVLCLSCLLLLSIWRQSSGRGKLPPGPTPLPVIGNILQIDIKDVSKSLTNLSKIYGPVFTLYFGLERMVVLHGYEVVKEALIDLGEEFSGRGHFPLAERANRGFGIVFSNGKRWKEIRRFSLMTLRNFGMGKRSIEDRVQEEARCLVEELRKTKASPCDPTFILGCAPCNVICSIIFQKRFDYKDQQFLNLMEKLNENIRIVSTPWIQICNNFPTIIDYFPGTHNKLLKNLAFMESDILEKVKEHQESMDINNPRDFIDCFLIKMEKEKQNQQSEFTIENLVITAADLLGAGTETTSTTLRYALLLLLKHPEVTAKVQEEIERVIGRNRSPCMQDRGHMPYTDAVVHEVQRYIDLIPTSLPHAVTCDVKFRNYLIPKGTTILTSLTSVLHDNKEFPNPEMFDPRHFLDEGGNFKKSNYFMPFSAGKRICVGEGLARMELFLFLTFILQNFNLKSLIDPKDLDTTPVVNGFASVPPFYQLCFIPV

Cytochrome P450 2D6 = Cytochrome P450 2D6 (Homo sapiens, UniProt P10635); experiment: Inhibition of CYP2D6 (unknown origin); format: ADME
Chain of Cytochrome P450 2D6 (P10635 whole entry): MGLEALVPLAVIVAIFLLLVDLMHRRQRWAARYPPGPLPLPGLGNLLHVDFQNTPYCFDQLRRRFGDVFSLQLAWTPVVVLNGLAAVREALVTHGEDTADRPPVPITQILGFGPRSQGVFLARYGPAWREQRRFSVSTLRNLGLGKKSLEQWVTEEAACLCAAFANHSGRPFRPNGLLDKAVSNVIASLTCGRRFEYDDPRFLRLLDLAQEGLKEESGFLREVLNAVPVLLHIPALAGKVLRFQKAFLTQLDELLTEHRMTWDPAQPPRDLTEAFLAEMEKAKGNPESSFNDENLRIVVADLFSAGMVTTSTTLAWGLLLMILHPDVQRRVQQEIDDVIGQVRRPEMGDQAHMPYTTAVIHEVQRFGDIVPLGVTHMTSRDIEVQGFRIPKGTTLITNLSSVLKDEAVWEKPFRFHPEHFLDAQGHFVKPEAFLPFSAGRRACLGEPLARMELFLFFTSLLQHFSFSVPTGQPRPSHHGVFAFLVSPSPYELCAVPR

Cytochrome P450 3A4 = Cytochrome P450 3A4 (Homo sapiens, UniProt P08684); experiment: Inhibition of CYP3A4 (unknown origin); format: ADME
Chain of Cytochrome P450 3A4 (P08684 whole entry): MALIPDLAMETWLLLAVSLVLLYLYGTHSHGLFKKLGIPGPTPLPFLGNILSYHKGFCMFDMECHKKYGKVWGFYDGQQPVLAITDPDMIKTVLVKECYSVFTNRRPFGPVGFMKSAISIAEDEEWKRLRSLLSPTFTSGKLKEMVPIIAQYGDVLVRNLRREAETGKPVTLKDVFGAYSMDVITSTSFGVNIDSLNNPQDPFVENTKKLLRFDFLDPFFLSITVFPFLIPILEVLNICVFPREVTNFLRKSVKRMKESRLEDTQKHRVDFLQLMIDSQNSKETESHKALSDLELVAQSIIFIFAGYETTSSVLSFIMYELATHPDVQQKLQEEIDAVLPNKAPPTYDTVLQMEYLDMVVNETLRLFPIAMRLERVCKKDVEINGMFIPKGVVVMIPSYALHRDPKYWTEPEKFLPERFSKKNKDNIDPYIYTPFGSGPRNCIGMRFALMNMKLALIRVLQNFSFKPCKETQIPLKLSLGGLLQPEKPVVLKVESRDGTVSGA

Hs-578T [20] = experiment: Antiproliferative activity against human Hs 578T cells up to 1000 nM after 72 hrs by ATPlite assay; format: functional, cell-based
BT-549 [21] = experiment: Antiproliferative activity against human BT549 cells up to 1000 nM after 72 hrs by ATPlite assay; format: functional, cell-based
MDA-MB-436 [22] = experiment: Antiproliferative activity against human MDA-MB-436 cells up to 1000 nM after 72 hrs by ATPlite assay; format: functional, cell-based
Hs-578T [23] = experiment: Antiproliferative activity against paclitaxel-resistant human Hs 578T cells 20B clone up to 1000 nM after 72 hrs by ATPlite assay; format: functional, cell-based
Hs-578T [24] = experiment: Antiproliferative activity against paclitaxel-resistant human Hs 578T cells 10C clone up to 1000 nM after 72 hrs by ATPlite assay; format: functional, cell-based
BT-549 [25] = experiment: Antiproliferative activity against paclitaxel-resistant human BT549 cells 10A clone up to 1000 nM after 72 hrs by ATPlite assay; format: functional, cell-based
MDA-MB-436 [26] = experiment: Antiproliferative activity against paclitaxel-resistant human MDA-MB-436 cells 20A clone up to 1000 nM after 72 hrs by ATPlite assay; format: functional, cell-based
MDA-MB-436 [27] = experiment: Antiproliferative activity against paclitaxel-resistant human MDA-MB-436 cells 20B clone up to 1000 nM after 72 hrs by ATPlite assay; format: functional, cell-based
Breast carcinoma cell = experiment: Antitumor activity against chemo-refractory disease patient-derived breast cancer cells xenografted in NOD/SCID mouse assessed as tumor growth inhibition at 20 mg/kg, iv administered weekly for 15 days; format: functional, organism-based; details: Homo sapiens

Compound: Cc1ncc(C(=O)Nc2ccc(-c3cccc(C4CC4)c3)cn2)cn1
- MTD [1]: ≤ 6 mg/kg
- TGI (SNU-16): 73%
- Tmax [2]: ≤ 15 min

Compound: CC(C)[N+](C)(CCOC(=O)C1c2ccccc2Oc2ccccc21)C(C)C [PROPANTHELINE]
- remaining at 1.25 h [3]: 13.9%
- remaining at 2 h [4]: 5.16%
- remaining at 4 h [5]: 0.34%

Compound: Cc1ccc(C(=O)Nc2ccc(-c3cccc(C4COC4)c3)cn2)cn1
- MTD [1]: ≤ 6 mg/kg
- TGI (SNU-16): 69%
- Tmax [2]: ≤ 15 min

Compound: CNC(=C[N+](=O)[O-])NCCSCc1ccc(CN(C)C)o1 [RANITIDINE]
- efflux ratio at 2 h [6]: 3.24
- Papp A→B at 2 h (in vitro [7]): 0.87 ×10⁻⁶ cm/s
- Papp B→A at 2 h (in vitro [8]): 2.83 ×10⁻⁶ cm/s

Compound: Cc1ncc(C(=O)Nc2ccc(-c3cccc(OC4CC4)c3)cn2)cn1
- MTD [1]: ≤ 6 mg/kg
- TGI (SNU-16): 100%
- MTD [9]: ≤ 20 mg/kg
- TGI (A2780): Active
- Activity (Mus musculus): Non-Toxic
- Tmax [2]: ≤ 15 min
- Tmax [10]: 15 min
- fraction unbound [11]: 0.0061
- fraction unbound [12]: 0.0061
- Drug recovery [13]: 79.64%
- remaining at 1.25 h [3]: 89.4%
- remaining at 2 h [4]: 81.1%
- remaining at 4 h [5]: 91.5%
- remaining at 8 h [14]: 74.1%
- remaining at 24 h [15]: 89.7%
- half-life [16]: 13.7 min
- half-life [17]: 10.9 min
- half-life [18]: 20.6 min
- half-life [19]: 144 min
- IC50 (Cytochrome P450 1A2): > 30 µM
- IC50 (Cytochrome P450 2C9): > 30 µM
- IC50 (Cytochrome P450 2C19): > 30 µM
- IC50 (Cytochrome P450 2D6): > 30 µM
- IC50 (Cytochrome P450 3A4): > 30 µM

Compound: CC(=O)CC(c1ccccc1)c1c(O)c2ccccc2oc1=O (configuration not stated) [WARFARIN]
- Drug recovery [13]: 98.63%

Compound: CC(=O)O[C@H]1C(=O)[C@@]2(C)[C@H]([C@H](OC(=O)c3ccccc3)[C@]3(O)C[C@H](OC(=O)[C@H](O)[C@@H](NC(=O)c4ccccc4)c4ccccc4)C(C)=C1C3(C)C)[C@]1(OC(C)=O)CO[C@@H]1C[C@@H]2O
- Activity (Hs-578T [20]): Active
- Activity (BT-549 [21]): Active
- Activity (MDA-MB-436 [22]): Active
- Activity (Hs-578T [23]): inactive
- Activity (Hs-578T [24]): inactive
- Activity (BT-549 [25]): inactive
- Activity (MDA-MB-436 [26]): inactive
- Activity (MDA-MB-436 [27]): inactive
- TGI (Breast carcinoma cell): inactive

Compound: Cc1ncc(C(=O)Nc2ccc(-c3cccc(NC4CC4)c3)cn2)cn1
- MTD [1]: ≤ 6 mg/kg
- TGI (SNU-16): 67%
- Tmax [2]: ≤ 15 min

Compound: COC(=O)c1ccccc1-c1c2ccc(=N)cc-2oc2cc(N)ccc12.Cl [RHODAMINE123]
- efflux ratio at 2 h [6]: 11.7
- Papp A→B at 2 h (in vitro [7]): 0.61 ×10⁻⁶ cm/s
- Papp B→A at 2 h (in vitro [8]): 7.17 ×10⁻⁶ cm/s

Compound: Cc1ncc(C(=O)Nc2ccc(-c3ccsc3)cn2)cn1
- MTD [1]: ≤ 6 mg/kg
- TGI (SNU-16): 135%
- MTD [9]: ≤ 20 mg/kg
- TGI (A2780): Active
- Activity (Mus musculus): Non-Toxic
- fraction unbound [11]: 0.0507
- fraction unbound [12]: 0.0507
- Drug recovery [13]: 93.56%
- remaining at 1.25 h [3]: 91.7%
- remaining at 2 h [4]: 92.2%
- remaining at 4 h [5]: 86.9%
- remaining at 8 h [14]: 71.6%
- remaining at 24 h [15]: 49%
- half-life [16]: 27.3 min
- half-life [17]: 25.9 min
- half-life [18]: 35.2 min
- half-life [19]: 7.5 min
- IC50 (Cytochrome P450 1A2): > 30 µM
- IC50 (Cytochrome P450 2C9): > 30 µM
- IC50 (Cytochrome P450 2C19): > 30 µM
- IC50 (Cytochrome P450 2D6): > 30 µM
- IC50 (Cytochrome P450 3A4): > 30 µM

Compound: O=C(Nc1ccc(-c2cccc(C3CC3)c2)cn1)c1cncnc1
- MTD [1]: ≤ 6 mg/kg
- TGI (SNU-16): 74%
- Tmax [2]: ≤ 15 min

Compound: O=C(Nc1ccc(-c2cccc(Cl)c2)cn1)c1cncnc1
- MTD [1]: ≤ 6 mg/kg
- TGI (SNU-16): 66%

Compound: CC(C)NCC(O)COc1cccc2ccccc12 (configuration not stated) [PROPRANOLOL]
- efflux ratio at 2 h [6]: 0.99
- Papp A→B at 2 h (in vitro [7]): 21.2 ×10⁻⁶ cm/s
- Papp B→A at 2 h (in vitro [8]): 21.1 ×10⁻⁶ cm/s
